According to ChEMBL document CHEMBL3526122, “Identification of UDP-glucuronosyltransferases responsible for the glucuronidation of darexaban, an oral factor Xa inhibitor, in human liver and intestine” (Drug Metab Dispos, 2012):

Columns and labels:
[1] = target: T1, UDP-glucuronosyltransferase 2B7 (Homo sapiens, UniProt P16662); assay: Activity of human recombinant UGT2B7 expressed in baculovirus-infected insect cells assessed as enzyme-mediated glucuronidation per mg of protein after 10 mins in presence of UDPGA; type: ADME
T1 sequence (P16662 whole entry): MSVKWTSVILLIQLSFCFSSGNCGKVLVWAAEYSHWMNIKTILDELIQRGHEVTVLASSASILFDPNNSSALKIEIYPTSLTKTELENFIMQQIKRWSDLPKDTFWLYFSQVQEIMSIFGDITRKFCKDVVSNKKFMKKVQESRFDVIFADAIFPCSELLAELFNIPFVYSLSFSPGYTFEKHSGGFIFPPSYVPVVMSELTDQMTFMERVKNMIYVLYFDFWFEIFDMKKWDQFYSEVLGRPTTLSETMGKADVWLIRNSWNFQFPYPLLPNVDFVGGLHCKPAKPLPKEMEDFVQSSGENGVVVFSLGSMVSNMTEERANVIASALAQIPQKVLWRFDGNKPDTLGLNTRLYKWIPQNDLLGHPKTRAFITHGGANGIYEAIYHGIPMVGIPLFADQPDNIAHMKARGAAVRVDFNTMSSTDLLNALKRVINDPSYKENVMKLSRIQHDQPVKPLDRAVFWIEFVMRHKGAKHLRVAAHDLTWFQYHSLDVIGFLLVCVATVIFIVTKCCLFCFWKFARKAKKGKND

[2] = Fraction unbound in human liver microsomes at 1 to 250 uM after 10 mins by ultrafiltration method in presence of 2% fatty acid free BSA; type: ADME
[3] = Substrate inhibition in human intestinal microsomes after 5 mins by Michaelis-Menten plot analysis in presence of UDPGA; type: ADME, Intestine, Microsome
[4] = Fraction unbound in human liver microsomes at 1 to 250 uM after 10 mins by ultrafiltration method in presence of 0.1% fatty acid free BSA; type: ADME
[5] = Intrinsic clearance in human intestinal microsomes assessed per mg of protein at 1 to 250 uM after 5 mins in presence of UDPGA; type: ADME, Intestine, Microsome
[6] = system: Liver microsome; assay: Drug metabolism in human liver microsomes assessed as glucuronidation per mg of protein after 10 mins by Michaelis-Menten plot analysis in presence of UDPGA and absence of fatty acid free BSA; type: ADME
[7] = system: Liver microsome; assay: Unbound intrinsic clearance in human liver microsomes assessed per mg of protein after 10 mins in presence of UDPGA and absence of fatty acid free BSA; type: ADME
[8] = target: T2, UDP-glucuronosyltransferase 1A1 (Homo sapiens, UniProt P22309); assay: Activity of human recombinant UGT1A1 expressed in baculovirus-infected insect cells assessed as enzyme-mediated glucuronidation per mg of protein after 10 mins in presence of UDPGA; type: ADME
T2 sequence (P22309 whole entry): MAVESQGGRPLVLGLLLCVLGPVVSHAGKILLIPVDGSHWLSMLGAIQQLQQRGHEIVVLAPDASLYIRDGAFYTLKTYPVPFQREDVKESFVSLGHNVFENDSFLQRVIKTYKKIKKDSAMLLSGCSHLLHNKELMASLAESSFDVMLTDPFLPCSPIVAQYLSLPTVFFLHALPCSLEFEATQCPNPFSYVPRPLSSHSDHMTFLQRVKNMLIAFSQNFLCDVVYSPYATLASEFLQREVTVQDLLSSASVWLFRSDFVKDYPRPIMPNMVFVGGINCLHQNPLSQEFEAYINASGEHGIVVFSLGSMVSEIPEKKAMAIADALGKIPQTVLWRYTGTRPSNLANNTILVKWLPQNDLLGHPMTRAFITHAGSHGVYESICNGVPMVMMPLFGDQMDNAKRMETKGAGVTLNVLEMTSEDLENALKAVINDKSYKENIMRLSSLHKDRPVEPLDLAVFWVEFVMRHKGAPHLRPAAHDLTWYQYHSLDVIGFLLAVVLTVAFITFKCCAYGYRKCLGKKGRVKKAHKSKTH

[9] = Drug metabolism in human liver microsomes assessed as glucuronidation after 10 mins by Michaelis-Menten plot analysis in presence of UDPGA and 0.1% fatty acid free BSA; type: ADME; details: read-out: Km(unbound)
[10] = Drug metabolism in human liver microsomes assessed as glucuronidation at 30 uM after 10 mins by LC-MS/MS analysis relative to vehicle-treated control in presence of propofol and UDPGA; type: ADME; details: with propofol, read-out: Drug metabolism
[11] = target: T3, UDP-glucuronosyltransferase 2B4 (Homo sapiens, UniProt P06133); assay: Activity of human recombinant UGT2B4 expressed in baculovirus-infected insect cells assessed as enzyme-mediated glucuronidation per mg of protein after 10 mins in presence of UDPGA; type: ADME
T3 sequence (P06133 whole entry): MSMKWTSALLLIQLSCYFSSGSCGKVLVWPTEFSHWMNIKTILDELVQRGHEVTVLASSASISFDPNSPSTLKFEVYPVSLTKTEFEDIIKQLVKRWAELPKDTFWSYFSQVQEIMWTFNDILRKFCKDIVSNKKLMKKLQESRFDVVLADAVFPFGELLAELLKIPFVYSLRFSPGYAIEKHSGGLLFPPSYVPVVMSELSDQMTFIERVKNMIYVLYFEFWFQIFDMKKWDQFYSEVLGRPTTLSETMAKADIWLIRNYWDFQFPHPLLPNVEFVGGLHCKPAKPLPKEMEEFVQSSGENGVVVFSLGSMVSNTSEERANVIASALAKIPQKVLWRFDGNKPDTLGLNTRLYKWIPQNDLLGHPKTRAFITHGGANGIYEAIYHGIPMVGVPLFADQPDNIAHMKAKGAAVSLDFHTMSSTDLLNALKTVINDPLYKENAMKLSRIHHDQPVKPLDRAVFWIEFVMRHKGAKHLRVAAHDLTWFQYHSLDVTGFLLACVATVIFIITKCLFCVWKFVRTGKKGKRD

[12] = Drug metabolism in human liver microsomes assessed as glucuronidation at 30 uM after 5 mins by LC-MS/MS analysis relative to vehicle-treated control in presence of bilirubin and UDPGA; type: ADME; details: with bilirubin, read-out: Drug metabolism
[13] = system: Liver microsome; assay: Drug metabolism in human liver microsomes assessed as glucuronidation per mg of protein after 10 mins by Michaelis-Menten plot analysis in presence of UDPGA and 0.5% fatty acid free BSA; type: ADME
[14] = Drug metabolism in human intestinal microsomes assessed as glucuronidation at 30 uM after 5 mins by LC-MS/MS analysis relative to vehicle-treated control in presence of beta-estradiol and UDPGA; type: ADME, Intestine, Microsome; details: with beta-estradiol, read-out: Drug metabolism
[15] = Ratio of Km for drug metabolism in human liver microsomes to Km for human recombinant UGT-mediated drug metabolism; type: ADME; details: recombinant enzyme
[16] = Drug metabolism in human intestinal microsomes assessed as glucuronidation after 10 mins by Michaelis-Menten plot; type: ADME, Intestine, Microsome

Drug metabolism [1]: < 0.01 nmol/min/mg
fraction unbound at 10 min, up to 250 µM [2]: 0.251
Ki [3]: 463 µM
fraction unbound at 10 min, up to 250 µM [4]: 0.72
clearance [5]: 166 µL/min/mg
Vmax [6]: 3.75 nmol/min/mg
CL free [7]: 17.4 µL/min/mg
Drug metabolism [8]: < 0.01 nmol/min/mg
Km at 10 min [9]: 17.7 µM
activity at 10 min, 30 µM [10]: 9%
Drug metabolism [11]: < 0.01 nmol/min/mg
activity at 5 min, 30 µM [12]: 59.9%
Vmax [13]: 3.25 nmol/min/mg
activity at 5 min, 30 µM [14]: 22.6%
Ratio [15]: 4.2
Km at 10 min [16]: 27.3 µM
SMILES: COc1ccc(C(=O)Nc2cccc(O)c2NC(=O)c2ccc(N3CCCN(C)CC3)cc2)cc1.O=C(O)CCC(=O)O
